{"source": "ChEMBL document CHEMBL1152288", "about": "“Characterization of thien-2-yl 1S,2R-milnacipran analogues as potent norepinephrine/serotonin transporter inhibitors for the treatment of neuropathic pain” (J Med Chem, 2008)", "key": {"[1]": {"test": "Apparent elimination half life in Fischer 344 rat at 50 mg/kg, po", "type": "ADME, organism-based", "set-up": "dose 50 mg/kg, route oral", "details": "in vivo, read-out: beta t1/2 (converted)"}, "[2]": {"test": "Cmax in Fischer 344 rat at 50 mg/kg, po", "type": "ADME, organism-based", "set-up": "dose 50 mg/kg, route oral", "details": "in vivo"}, "[3]": {"test": "Tmax in Fischer 344 rat at 50 mg/kg, po", "type": "ADME, organism-based", "set-up": "dose 50 mg/kg, route oral", "details": "in vivo"}, "[4]": {"test": "in vitro", "details": "human, Caco-2", "description": "Apparent permeability from apical to basolateral side of the human Caco-2 cells"}, "[5]": {"system": "Rattus norvegicus", "test": "AUC in Fischer 344 rat at 50 mg/kg, po", "type": "ADME, organism-based, Plasma", "set-up": "dose 50 mg/kg, route oral", "details": "in vivo"}, "[6]": {"system": "Rattus norvegicus", "test": "Oral bioavailability in Fischer 344 rat at 50 mg/kg", "type": "ADME, organism-based", "details": "in vivo"}, "[7]": {"target": "Sodium-dependent dopamine transporter (Rattus norvegicus, UniProt P23977)", "sequence (P23977 whole entry)": "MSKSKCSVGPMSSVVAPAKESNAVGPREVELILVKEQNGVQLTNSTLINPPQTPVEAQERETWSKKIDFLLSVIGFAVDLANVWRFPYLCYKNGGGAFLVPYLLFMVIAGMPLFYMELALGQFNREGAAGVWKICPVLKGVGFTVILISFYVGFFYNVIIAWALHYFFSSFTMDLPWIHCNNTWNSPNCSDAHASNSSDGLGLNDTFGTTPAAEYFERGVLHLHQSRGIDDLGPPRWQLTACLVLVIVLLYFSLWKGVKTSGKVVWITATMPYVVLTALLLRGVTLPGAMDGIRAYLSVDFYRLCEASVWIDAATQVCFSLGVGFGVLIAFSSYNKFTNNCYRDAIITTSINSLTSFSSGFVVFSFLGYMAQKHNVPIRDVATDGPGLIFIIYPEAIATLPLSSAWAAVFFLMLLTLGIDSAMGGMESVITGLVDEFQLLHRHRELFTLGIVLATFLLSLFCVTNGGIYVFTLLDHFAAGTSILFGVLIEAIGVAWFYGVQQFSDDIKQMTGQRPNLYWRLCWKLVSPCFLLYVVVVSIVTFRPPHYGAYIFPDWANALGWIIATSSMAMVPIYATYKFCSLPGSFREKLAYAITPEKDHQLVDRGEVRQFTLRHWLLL", "test": "biochemical", "description": "Displacement of 3,4-[ring-2,5,6-3H]dihydroxyphenylethylamine from rat synaptosomal DAT expressed in HEK293 cells by microplate scintillation counter"}, "[8]": {"test": "physchem", "description": "Dissociation constant, pKa of the compound"}, "[9]": {"target": "T1, Transporter (Rattus norvegicus, UniProt Q63380)", "T1 sequence (Q63380 whole entry)": "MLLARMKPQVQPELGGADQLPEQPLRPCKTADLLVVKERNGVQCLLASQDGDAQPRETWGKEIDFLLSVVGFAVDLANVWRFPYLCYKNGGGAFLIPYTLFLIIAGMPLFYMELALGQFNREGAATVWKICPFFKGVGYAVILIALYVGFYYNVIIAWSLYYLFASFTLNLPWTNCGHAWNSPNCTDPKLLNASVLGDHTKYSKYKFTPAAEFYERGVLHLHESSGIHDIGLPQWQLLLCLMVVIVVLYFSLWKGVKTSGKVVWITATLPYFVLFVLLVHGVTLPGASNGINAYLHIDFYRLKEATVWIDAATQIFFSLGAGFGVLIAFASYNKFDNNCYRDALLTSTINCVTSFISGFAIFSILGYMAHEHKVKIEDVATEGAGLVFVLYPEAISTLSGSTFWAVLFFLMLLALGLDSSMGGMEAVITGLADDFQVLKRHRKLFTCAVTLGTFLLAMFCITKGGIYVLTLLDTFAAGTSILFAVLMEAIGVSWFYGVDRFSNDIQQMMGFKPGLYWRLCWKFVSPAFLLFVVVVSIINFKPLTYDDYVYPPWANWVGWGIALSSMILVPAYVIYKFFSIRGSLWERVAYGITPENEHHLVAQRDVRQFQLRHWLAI", "description": "Inhibition of radiolabeled noradrenaline uptake from rat brain NET"}, "[10]": {"test": "Drug excretion in human urine", "type": "ADME", "details": "read-out: Activity"}, "[11]": {"target": "T2, Sodium-dependent serotonin transporter (Rattus norvegicus, UniProt P31652)", "T2 sequence (P31652 whole entry)": "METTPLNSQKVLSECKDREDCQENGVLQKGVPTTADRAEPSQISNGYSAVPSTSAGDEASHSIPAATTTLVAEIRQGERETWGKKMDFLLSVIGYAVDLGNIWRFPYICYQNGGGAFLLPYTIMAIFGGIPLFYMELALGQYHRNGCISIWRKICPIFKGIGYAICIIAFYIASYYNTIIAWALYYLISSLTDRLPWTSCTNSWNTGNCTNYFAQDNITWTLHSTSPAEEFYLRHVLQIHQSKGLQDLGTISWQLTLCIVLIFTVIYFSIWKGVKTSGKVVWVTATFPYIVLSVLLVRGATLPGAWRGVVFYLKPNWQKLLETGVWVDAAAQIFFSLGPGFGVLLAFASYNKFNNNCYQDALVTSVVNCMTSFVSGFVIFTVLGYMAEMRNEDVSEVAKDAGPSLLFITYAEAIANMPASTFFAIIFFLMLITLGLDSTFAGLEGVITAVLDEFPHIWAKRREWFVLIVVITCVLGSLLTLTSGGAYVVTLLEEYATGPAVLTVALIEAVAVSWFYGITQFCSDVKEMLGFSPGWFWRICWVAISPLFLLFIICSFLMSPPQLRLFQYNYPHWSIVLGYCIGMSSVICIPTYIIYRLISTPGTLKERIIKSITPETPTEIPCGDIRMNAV", "test": "Inhibition of radiolabeled serotonin uptake from rat brain SERT"}, "[12]": {"test": "Metabolic stability in rat liver microsomes assessed as systemic clearance at 1 uM after 15 mins by LC-MS/MS analysis", "type": "ADME, Microsome"}, "[13]": {"test": "Partition coefficient, log P of the compound", "type": "physicochemical", "details": "octanol/water"}, "[14]": {"test": "Lipophilicity, log D of the compound", "type": "physicochemical", "details": "octanol/water"}, "[15]": {"test": "Metabolic stability in human liver microsomes assessed as systemic clearance at 1 uM after 15 mins by LC-MS/MS analysis", "type": "ADME, Microsome"}, "[16]": {"test": "Oral bioavailability in human", "type": "ADME, organism-based", "details": "in vivo"}, "[17]": {"target": "T2, Sodium-dependent serotonin transporter", "type": "cell-based, HEK293"}, "[18]": {"test": "Renal clearance in Sprague-Dawley rat at 5 mg/kg, iv", "type": "ADME, organism-based, Kidney", "set-up": "dose 5 mg/kg, route intravenous", "details": "in vivo, read-out: CL_renal"}, "[19]": {"target": "Sodium-dependent noradrenaline transporter (Homo sapiens, UniProt P23975)", "sequence (P23975 whole entry)": "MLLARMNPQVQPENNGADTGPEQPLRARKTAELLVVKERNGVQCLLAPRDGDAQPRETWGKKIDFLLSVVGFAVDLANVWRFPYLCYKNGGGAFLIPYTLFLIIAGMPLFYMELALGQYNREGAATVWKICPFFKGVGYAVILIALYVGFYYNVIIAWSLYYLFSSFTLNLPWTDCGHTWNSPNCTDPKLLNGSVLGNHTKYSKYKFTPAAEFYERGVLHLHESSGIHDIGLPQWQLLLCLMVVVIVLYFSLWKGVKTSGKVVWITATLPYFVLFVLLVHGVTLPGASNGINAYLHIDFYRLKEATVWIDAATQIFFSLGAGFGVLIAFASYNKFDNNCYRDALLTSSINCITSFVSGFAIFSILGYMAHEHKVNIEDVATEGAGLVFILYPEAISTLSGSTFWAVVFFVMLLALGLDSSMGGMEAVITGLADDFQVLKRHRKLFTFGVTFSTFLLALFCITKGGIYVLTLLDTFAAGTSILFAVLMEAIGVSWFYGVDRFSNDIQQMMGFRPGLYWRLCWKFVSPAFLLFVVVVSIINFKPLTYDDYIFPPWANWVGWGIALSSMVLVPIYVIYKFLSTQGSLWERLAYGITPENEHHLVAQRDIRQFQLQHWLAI", "test": "biochemical", "description": "Displacement of Levo[ring-2,5,6-3H]norepinephrine from human cloned NET expressed in HEK293 cells by microplate scintillation counter"}, "[20]": {"test": "Ratio of drug level in brain to plasma in Sprague-Dawley rat at 30 mg/kg, po after 1 hr", "type": "ADME, organism-based", "set-up": "dose 30 mg/kg, route oral"}, "[21]": {"test": "Tmax in Sprague-Dawley rat at 30 mg/kg, po", "type": "ADME, organism-based", "set-up": "dose 30 mg/kg, route oral", "details": "in vivo"}, "[22]": {"test": "Apparent elimination half life in Sprague-Dawley rat at 30 mg/kg, po", "type": "ADME, organism-based", "set-up": "dose 30 mg/kg, route oral", "details": "in vivo, read-out: beta t1/2 (converted)"}, "[23]": {"target": "Sodium-dependent dopamine transporter (Homo sapiens, UniProt Q01959)", "sequence (Q01959 whole entry)": "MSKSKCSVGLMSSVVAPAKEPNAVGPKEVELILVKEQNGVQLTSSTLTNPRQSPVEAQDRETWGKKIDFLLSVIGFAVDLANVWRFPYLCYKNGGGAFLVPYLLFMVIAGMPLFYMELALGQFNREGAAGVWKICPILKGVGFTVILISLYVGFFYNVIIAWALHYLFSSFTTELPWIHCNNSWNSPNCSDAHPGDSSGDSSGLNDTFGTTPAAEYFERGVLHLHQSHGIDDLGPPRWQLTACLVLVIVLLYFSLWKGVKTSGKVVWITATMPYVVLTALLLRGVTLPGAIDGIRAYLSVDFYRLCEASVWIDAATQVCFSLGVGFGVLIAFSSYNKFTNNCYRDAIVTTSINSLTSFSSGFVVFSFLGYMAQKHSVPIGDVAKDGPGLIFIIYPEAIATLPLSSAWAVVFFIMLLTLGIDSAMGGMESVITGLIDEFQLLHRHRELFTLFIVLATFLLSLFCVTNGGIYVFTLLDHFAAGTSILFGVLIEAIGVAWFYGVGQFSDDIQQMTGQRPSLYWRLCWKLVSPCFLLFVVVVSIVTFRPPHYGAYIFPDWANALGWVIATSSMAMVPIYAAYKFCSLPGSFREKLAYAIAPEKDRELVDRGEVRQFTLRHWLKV", "test": "biochemical", "description": "Displacement of 3,4-[ring-2,5,6-3H]dihydroxyphenylethylamine from human cloned DAT expressed in HEK293 cells by microplate scintillation counter"}, "[24]": {"target": "Cytochrome P450 2D6 (Homo sapiens, UniProt P10635)", "sequence (P10635 whole entry)": "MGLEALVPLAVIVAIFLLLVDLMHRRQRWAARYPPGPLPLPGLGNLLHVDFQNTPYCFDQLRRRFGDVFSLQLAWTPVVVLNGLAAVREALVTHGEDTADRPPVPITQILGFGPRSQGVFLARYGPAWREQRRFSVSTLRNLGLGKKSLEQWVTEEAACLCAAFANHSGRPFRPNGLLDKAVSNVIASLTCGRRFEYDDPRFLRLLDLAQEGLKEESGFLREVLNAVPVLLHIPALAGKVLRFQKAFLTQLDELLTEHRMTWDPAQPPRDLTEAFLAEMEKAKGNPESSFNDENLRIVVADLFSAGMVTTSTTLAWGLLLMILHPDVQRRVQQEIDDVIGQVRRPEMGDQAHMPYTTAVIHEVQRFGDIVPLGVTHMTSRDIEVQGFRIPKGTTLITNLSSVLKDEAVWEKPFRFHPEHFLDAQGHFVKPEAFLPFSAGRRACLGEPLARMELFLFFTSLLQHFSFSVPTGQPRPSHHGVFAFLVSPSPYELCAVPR", "test": "Inhibition of CYP2D6", "type": "ADME"}, "[25]": {"system": "Rattus norvegicus", "test": "Reversal of pin-prick-induced neuropathic mechanical hyperalgesia in Harlan Sprague-Dawley rat sciatic nerve ligation model at 30 mg/kg, po", "type": "functional"}, "[26]": {"test": "Volume of distribution at steady state in Sprague-Dawley rat at 5 mg/kg, iv", "type": "ADME, organism-based", "set-up": "dose 5 mg/kg, route intravenous", "details": "in vivo, read-out: Vdss"}, "[27]": {"test": "Bioavailability in Sprague-Dawley rat at 5 mg/kg, iv", "type": "ADME, organism-based", "details": "in vivo"}, "[28]": {"test": "Plasma clearance in Sprague-Dawley rat at 5 mg/kg, iv", "type": "ADME, organism-based", "set-up": "dose 5 mg/kg, route intravenous"}, "[29]": {"system": "Rattus norvegicus", "test": "Antinociceptive activity in CD rat assessed as reduction in number of hind paw flinching at 60 mg/kg, po by formalin test", "type": "functional", "set-up": "scale not given: the % may be the effect or the level left"}, "[30]": {"test": "Mean residence time in Sprague-Dawley rat at 5 mg/kg, iv", "type": "ADME, organism-based", "set-up": "dose 5 mg/kg, route intravenous", "details": "in vivo"}, "[31]": {"test": "AUC in Sprague-Dawley rat at 5 mg/kg, iv", "type": "ADME, organism-based", "set-up": "dose 5 mg/kg, route intravenous", "details": "plasma"}, "[32]": {"test": "Half life in Sprague-Dawley rat at 5 mg/kg, iv", "type": "ADME, organism-based", "set-up": "dose 5 mg/kg, route intravenous", "details": "in vivo"}, "[33]": {"target": "Sodium-dependent serotonin transporter (Homo sapiens, UniProt P31645)", "sequence (P31645 whole entry)": "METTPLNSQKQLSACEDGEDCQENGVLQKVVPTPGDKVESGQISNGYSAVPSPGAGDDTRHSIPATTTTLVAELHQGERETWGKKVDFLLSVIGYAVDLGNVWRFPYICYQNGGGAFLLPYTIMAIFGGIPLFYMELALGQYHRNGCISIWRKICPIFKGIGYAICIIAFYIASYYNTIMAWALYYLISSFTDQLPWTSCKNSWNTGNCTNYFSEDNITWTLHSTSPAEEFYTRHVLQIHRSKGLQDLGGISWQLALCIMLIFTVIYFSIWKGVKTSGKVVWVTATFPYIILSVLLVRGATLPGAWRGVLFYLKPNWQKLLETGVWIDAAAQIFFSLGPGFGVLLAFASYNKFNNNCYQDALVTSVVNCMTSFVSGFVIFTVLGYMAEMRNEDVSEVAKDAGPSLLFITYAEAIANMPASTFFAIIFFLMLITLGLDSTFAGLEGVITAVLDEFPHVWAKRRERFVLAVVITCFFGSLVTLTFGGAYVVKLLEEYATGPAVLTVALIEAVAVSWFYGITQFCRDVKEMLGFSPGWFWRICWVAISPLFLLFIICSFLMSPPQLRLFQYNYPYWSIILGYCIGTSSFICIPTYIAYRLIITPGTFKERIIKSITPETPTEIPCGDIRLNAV", "test": "biochemical", "description": "Displacement of [alpha,beta-3H(N)]-5-hydroxytryptamine from human cloned SERT expressed in HEK293 cells by microplate scintillation counter"}, "[34]": {"test": "Drug level in Sprague-Dawley rat brain at 30 mg/kg, po after 1 hr", "type": "ADME, organism-based", "set-up": "dose 30 mg/kg, route oral", "details": "read-out: Drug uptake"}, "[35]": {"test": "Apparent oral clearance in Sprague-Dawley rat at 30 mg/kg, po", "type": "ADME, organism-based", "set-up": "dose 30 mg/kg, route oral", "details": "in vivo"}, "[36]": {"test": "Ratio of drug level in brain to plasma in Sprague-Dawley rat at 30 mg/kg, po after 4 hrs", "type": "ADME, organism-based", "set-up": "dose 30 mg/kg, route oral"}, "[37]": {"target": "T1, Transporter", "test": "biochemical", "description": "Displacement of Levo[ring-2,5,6-3H]norepinephrine from rat synaptosomal NET expressed in HEK293 cells by microplate scintillation counter"}, "[38]": {"test": "AUC in Sprague-Dawley rat at 30 mg/kg, po", "type": "ADME, organism-based", "set-up": "dose 30 mg/kg, route oral", "details": "plasma"}, "[39]": {"test": "Volume of distribution in Sprague-Dawley rat at 5 mg/kg, iv", "type": "ADME, organism-based", "set-up": "dose 5 mg/kg, route intravenous", "details": "in vivo"}, "[40]": {"test": "Drug level in Sprague-Dawley rat brain at 30 mg/kg, po after 4 hrs", "type": "ADME, organism-based", "set-up": "dose 30 mg/kg, route oral", "details": "read-out: Drug uptake"}, "[41]": {"test": "Cmax in Sprague-Dawley rat at 30 mg/kg, po", "type": "ADME, organism-based", "set-up": "dose 30 mg/kg, route oral", "details": "in vivo"}}}
{"smiles": "CNCC[C@@H](Oc1ccccc1C)c1ccccc1", "note": "[ATOMOXETINE]", "values": [{"measurement": "half-life", "setting": "[1]", "result": 168, "unit": "min"}, {"measurement": "Cmax", "setting": "[2]", "result": 170, "unit": "ng/mL"}, {"measurement": "Tmax", "setting": "[3]", "result": 2, "unit": "h"}, {"measurement": "Papp A→B", "setting": "[4]", "result": 43.7, "unit": "×10⁻⁶ cm/s"}, {"measurement": "AUC", "setting": "[5]", "result": 910, "unit": "ng·h/mL"}, {"measurement": "F", "setting": "[6]", "result": 1.5, "unit": "%"}]}
{"smiles": "CCN(CC)C(=O)C1(c2ccccc2)CC1CN", "note": "(centres undefined)", "values": [{"measurement": "IC50", "setting": "[7]", "result": 37, "unit": "µM"}, {"measurement": "pKa", "setting": "[8]", "result": 9.5}, {"measurement": "IC50", "setting": "[9]", "result": 100, "unit": "nM"}, {"measurement": "dose excreted", "setting": "[10]", "result": "> 80", "unit": "%"}, {"measurement": "IC50", "setting": "[11]", "result": 203, "unit": "nM"}, {"measurement": "CLhep predicted at 1 µM", "setting": "[12]", "result": 24, "unit": "mL/min/kg"}, {"measurement": "logP", "setting": "[13]", "result": 1.7}, {"measurement": "logD", "setting": "[14]", "result": 0.2}, {"measurement": "CLhep predicted at 1 µM", "setting": "[15]", "result": 3.1, "unit": "mL/min/kg"}, {"measurement": "bioavailability", "setting": "[16]", "result": 85, "unit": "%"}, {"measurement": "IC50", "setting": "[17]", "result": 47, "unit": "nM"}]}
{"smiles": "C=CCN(CC=C)C(=O)[C@@]1(c2cccs2)C[C@H]1CN", "values": [{"measurement": "CL renal", "setting": "[18]", "result": 11, "unit": "mL/min/kg"}, {"measurement": "IC50", "setting": "[19]", "result": 2.3, "unit": "nM"}, {"measurement": "IC50", "setting": "[7]", "result": 19, "unit": "µM"}, {"measurement": "Kp at 1 h", "setting": "[20]", "result": 0.6}, {"measurement": "Tmax", "setting": "[21]", "result": 30, "unit": "min"}, {"measurement": "half-life", "setting": "[22]", "result": 72, "unit": "min"}, {"measurement": "pKa", "setting": "[8]", "result": 9.4}, {"measurement": "IC50", "setting": "[23]", "result": "> 10", "unit": "µM"}, {"measurement": "IC50", "setting": "[24]", "result": 6, "unit": "µM"}, {"measurement": "Activity", "setting": "[25]", "result": 60, "unit": "%"}, {"measurement": "Vd", "setting": "[26]", "result": 4.4, "unit": "L/kg"}, {"measurement": "bioavailability", "setting": "[27]", "result": 12, "unit": "%"}, {"measurement": "clearance", "setting": "[28]", "result": 102, "unit": "mL/min/kg"}, {"measurement": "CLhep predicted at 1 µM", "setting": "[12]", "result": 61, "unit": "mL/min/kg"}, {"measurement": "logP", "setting": "[13]", "result": 2}, {"measurement": "Activity", "setting": "[29]", "result": 56, "unit": "%"}, {"measurement": "MRT", "setting": "[30]", "result": 42, "unit": "min"}, {"measurement": "AUC", "setting": "[31]", "result": 721, "unit": "ng·h/mL"}, {"measurement": "half-life", "setting": "[32]", "result": 36, "unit": "min"}, {"measurement": "IC50", "setting": "[33]", "result": 32, "unit": "nM"}, {"measurement": "concentration at 1 h", "setting": "[34]", "result": 127, "unit": "ng/g"}, {"measurement": "logD", "setting": "[14]", "result": 0.3}, {"measurement": "CLhep predicted at 1 µM", "setting": "[15]", "result": 9.9, "unit": "mL/min/kg"}, {"measurement": "CL/F", "setting": "[35]", "result": 444, "unit": "mL/min/kg"}, {"measurement": "Kp at 4 h", "setting": "[36]", "result": 1.4}, {"measurement": "IC50", "setting": "[37]", "result": 4.6, "unit": "nM"}, {"measurement": "AUC", "setting": "[38]", "result": 1130, "unit": "ng·h/mL"}, {"measurement": "Vd", "setting": "[39]", "result": 5.3, "unit": "L/kg"}, {"measurement": "concentration at 4 h", "setting": "[40]", "result": 26, "unit": "ng/g"}, {"measurement": "Papp A→B", "setting": "[4]", "result": 16.7, "unit": "×10⁻⁶ cm/s"}, {"measurement": "IC50", "setting": "[17]", "result": 11, "unit": "nM"}, {"measurement": "Cmax", "setting": "[41]", "result": 522, "unit": "ng/mL"}]}
